Results reported in publication PMC9079931 (RSC Advances, 2018).

Key:
[1] = tested on: human colon cancer cell line Caco-2; experiment: In vitro cytotoxicity, MTT assay; format: cell-based; conditions: Caco-2, 24 h, 0.001–100 μg ml^−1
[2] = cited from earlier work
[3] = cited from earlier work; remark: listed apart in the source
[4] = cited from earlier work; remark: listed apart in the source

## N#CC(c1ccc(Cl)cc1)c1c(Cl)cc(-n2ncc(=O)[nH]c2=O)cc1Cl (stereo not shown) [DIC, Diclazuril]
[1]
  Cell viability of Caco-2 cells versus concentration: gradually decreased with the increase of free drug concentration
[2]
  Solubility of DIC in water: 0.69 µg/mL
[3]
  Acute toxicity: low acute toxicity

## OB(O)c1ccccc1 [phenylboronic acid]
[4]
  Oral acute toxicity dose: higher than 900 mg kg^−1 body weight
